One assay deals with Bacillus subtilis. As to the kind of experiment: Soil competition (soil bacteria-enrichment) assay, qPCR with strain-specific probes. It is filed as cell-based. The conditions noted are these: 1 g non-sterile agriculture soil, 300 μL exudates, 20 mM target carbon substrate, four species pooled, 72 hours, qPCR (FIG. 23). As for the experimental part: (§1) In some embodiments, the competition assay comprises adding one or more bacteria of interest to non-sterile agriculture soil at an equal starting OD and incubating the soil with plant root exudate and a desired concentration of candidate soil-bacteria enriching agent. In some embodiments, the non-sterile agriculture soil further comprises one or more plants. Methods of obtaining plant root exudate are known in the art. All such methods are suitable for use in the methods disclosed herein. For example, in some embodiments, plant root exudate is obtained by surface sterilizing Arabidopsis thaliana seeds, sowing the seeds on an agar plate and growing the seeds for 7 days. In some embodiments, after 7 days, the seedlings are transferred to a multi-well plate for exudate collection. In some embodiments, exudate collection comprises adding MS media to each well of the multi-well well plate along with about 50, 7-day old, Arabidopsis seedlings. The seedlings are then incubated with shaking in growth chamber for about 24 hours. After 24 hours, the exudates are collected, pooled, and filter sterilized. In some embodiments, the treated non-sterile agriculture soil is incubated with plant root exudate and a desired concentration of soil bacteria-enriching agent for about 3 days. After 3 days, DNA is extracted from soil and the concentration of the bacteria in the soil is measured. For example, in some embodiments, qPCR analysis is conducted using a universal bacteria primer “ALL” and species-specific primers. The threshold cycle (Ct) value for the universal primer is then subtracted from each of the species-specific primers to get the dCt or ΔCt.
(§2) The ability of the identified compounds to effectively manipulate the soil microbial community was examined using a series of soil bacteria-enrichment experiments. First, the ability of the candidate selective carbon substrates to influence microbial competition was tested using a series of soil competition experiments. 1 g of non-sterile agriculture soil was added to a 2 mL tube along with 300 μL of exudates, 20 mM target carbon substrates and an OD 3.33 of all four species pooled at an equal starting concentration. Tubes were collected after 72 hours and stored in −80° C. before processing. DNA was then extracted and screened using qPCR with probes unique to each strain to determine the abundance of each strain in the mixed community.

In the next assay the test system is Azospirillum brasilense. The assay is described as above. It is filed as cell-based. Conditions: 1 g non-sterile agriculture soil, 300 μL exudates, 20 mM target carbon substrate, four species pooled, 72 hours, qPCR (FIG. 21). How it is done:
as §1, §2
(In general: In qPCR the cycle at which signal appears reflects the starting amount.)

The subject of assay [1] is Pseudomonas putida. The description is as above. Type of assay: cell-based. The conditions noted are these: 1 g non-sterile agriculture soil, 300 μL exudates, 20 mM target carbon substrate, four species pooled, 72 hours, qPCR (FIG. 24). As for the experimental part:
as §1, §2

In assay [2] the test system is Pseudomonas putida. In words: Persistence of P. putida bioinoculant in non-sterile soil over time (qPCR, ΔCt). It is filed as cell-based. The conditions noted are these: initial density 10^5 cfu/g soil, exudate solution +/- 20 mM PEA, 28° C., sampled every 3 days, qPCR ΔCt (FIG. 25-26). How it is done:
FIG. 25-26 are graphs showing persistence of a P. putida bioinoculant over time. […] Lower ΔCt indicates higher abundance. P. putida was introduced into non-sterile soil at an initial density of 10^5 cfu/g soil in exudate solution +/−20 mM phenylethylamine (PEA) at day 0 and allowed to incubate at 28° C. Two replicates are shown for each condition. Every 3 days, soil was collected, and DNA was extracted to probe the concentration of P. putida using 16S primers. Template DNA for qPCR was normalized to ˜1 ng/reaction.

The next assay relates to P. putida KT2440 (PP). As to the kind of experiment: Enrichment of bioinoculant in soil in the presence of plants (bulk soil and root qPCR). Type of assay: in vivo, Pseudomonas putida; Arabidopsis thaliana seedlings. Conditions: agriculture soil in magenta box, +/- 20 mM phenylethylamine, 10^5 cells per gram of soil, four Arabidopsis seedlings, 1 or 2 weeks. The text has this: Some embodiments herein are directed to a method of assessing whether a given soil bacteria-enriching agent enriches a specific species of bacteria in a soil microbiome comprising at least one additional bacterial species when one or more plants are being supported by the soil. In some embodiments, the method comprises adding a known concentration of one or more species of bacteria to soil along with a soil bacteria-enriching agent. In some embodiments, the bacteria comprise Pseudomonas putida (PP), Azotobacter vinelandii (AV), Bacillus subtilis (BS), and/or Azospirillum brasilense (AB). In some embodiments, soil moisture at the start of the experiment is adjusted a desired level for growth of the plant. One or more plants are then planted in the treated soil and allowed to grow for about 1, 2, 3, 4, 5, 6, 7, 8, 9, 10, 11, 12, 13, 14, 15, 16, 17, 18, 19, 20, 21, 22, 23, 24, 25, 26, 27, 28, 29, 30, or 31 days or more, or for an amount of time that is in a range that is defined by any two of the preceding values. […] The quantity of one or more species of bacteria in the soil and/or the plant roots is then determined and one or more soil bacteria-enriching agents that uniquely promote the growth and attraction of a desired bacterial species as compared to one or more other bacteria in the soil microbiome are identified. […]

Turning to `COC1OC(CO)C(O)C(O)C1O` [α-methyl d-galactoside, a-Methyl-D-Galactoside], the “enrichment of Bacillus subtilis in agricultural soils with a native microbiome” value in the assay on Bacillus subtilis was “can be used to enrich Bacillus subtilis”.

For `CCC(=O)[O-].[Na+]` [sodium propionate], the “enrichment of Azospirillum brasilense in agricultural soils with a native microbiome” value with Azospirillum brasilense was “can be used to enrich Azospirillum brasilense”.

As to `OC[C@H]1O[C@@H](Oc2ccc(O)cc2)[C@H](O)[C@@H](O)[C@@H]1O` [arbutin, Arbutin], the “enrichment of Bacillus subtilis in agricultural soils with a native microbiome” value in the assay on Bacillus subtilis is recorded as “can be used to enrich Bacillus subtilis”.

In the case of `CCCCCCCCCC(=O)O` [capric acid, Capric acid], in the assay with Pseudomonas putida [1], the “enrichment of Pseudomonas putida in agricultural soils with native microbiome” value is given as “can be used to enrich Pseudomonas putida”.

Regarding `NCCc1ccccc1` [phenylethylamine, Phenylethylamine], in the assay with Pseudomonas putida [1], the “enrichment of Pseudomonas putida in agricultural soils with native microbiome” value was “can be used to enrich Pseudomonas putida”. Also, in the assay on Pseudomonas putida [2], the “persistence of Pseudomonas putida in agricultural soil” value is “persists longer”. For the same compound, the “enrichment of PP in the bulk soil” value with P. putida KT2440 (PP) (qPCR (FIG. 27)) is listed as “enriched”. Moreover, the “enrichment of PP on plant root (root colonization)” value in the assay on P. putida KT2440 (PP) (root DNA qPCR (FIG. 28)) was “enriched”.

These data come from patent publication US20250187998A1, “IDENTIFICATION OF SOIL BACTERIA-ENRICHING AGENTS AND METHODS OF USE THEREOF” (California Institute of Technology, priority 2023, published 2025).
